Source: patent publication US20080176889A1, “9-anilinoacridine alkylating agents” (priority 2004, published 2008)
Like-named read-outs stand apart in the source and are kept apart here.

How the values were obtained:
CCRF-CEM/Taxol = test: XTT cytotoxicity assay, taxol-resistant subline; type: cell-based, human
Method: (§1) The effects of the compounds on cell growth were determined in all human tumor cells (i.e. T-cell acute lymphocytic leukemia CCRF-CEM), in a 72 h incubation, by XTT-tetrazolium assay, as described by Scudiero et al., Cancer Res. 1988, 48, 4827-4833. After the addition of phenazine methosulfate-XTT solution at 37° C. for 6 h, absorbance at 450 and 630 nm was detected on a microplate reader (EL 340; Bio-Tek Instruments Inc., Winooski, Vt.). Six to seven concentrations of each compound were used. The IC50 and dose-effect relationships of the compounds for antitumor activity were calculated by a median-effect plot (see, e.g., Chou et al. Adv. Enzyme Regul. 1984, 22, 27-55) using a computer program on an IBM-PC workstation (see, e.g., Chou et al. Dose-Effect Analysis with Microcomputers: Quantitation of ED50, LD50, Synergism, Antagonism, Low-Dose Risk, Receptor-Ligands Binding and Enzyme Kinetics; Biosoft: Cambridge, U.K., 1987).
(§2) Data summarizing the growth inhibition of human lymphoblastic leukemic cells (CCRF-CEM) and its drug-resistant sublines (resistant to vinblastine and taxol, CCRF-CEM/VBL and CCRF-CEM/taxol, respectively) by compound 37 is shown in Table 4.

[1] = tested on: human T-cell lymphoblastic leukemic lymphoma xenografts (CCRF-CEM); test: CCRF-CEM xenograft in nude mice; type: in vivo
Method: (§3) Athymic nude mice bearing the nu/nu gene were used for human breast tumor MX-1 xenograft. Outbred Swiss-background mice were obtained from Charies River Breeding Laboratories. Male mice 8 weeks old or older weighing 22 g or more were used for most experiments. Drug was administrated via the tail vein by i.v. injection. Tumor volumes were assessed by measuring length×width×height (or width) by using caliper. Vehicle used was 20 μl DMSO in 180 μl saline. All animal studies were conducted in accordance with the guidelines of the National Institutes of Health Guide for the Care and Use of Animals and the protocol approved by the Memorial Sloan-Kettering Cancer Center's Institutional Animal Care and Use Committee.
Table 6 summarizes data related to the therapeutic effects and toxicity of compound 37 in nude mice bearing human T-cell leukemic lymphoma CCRF-CEM xenografts. About 70% of average tumor sized was reduced at the dose of 2 mg/kg (Q3D×5).

A549 = test: SRB cytotoxicity assay, solid tumor cells A549; type: cell-based, human; details: for IC50: Homo sapiens, A549, SRB
CCRF-CEM/VBL = test: XTT cytotoxicity assay, vinblastine-resistant subline; type: cell-based, human
Method: as §1, §2

[2] = tested on: human lymphoblastic leukemic cells (CCRF-CEM); test: XTT-tetrazolium cytotoxicity assay, CCRF-CEM; type: cell-based; details: for IC50: Homo sapiens, 72 h
Method: as §1

[3] = tested on: human mammary carcinoma (MX-1) xenografts; test: MX-1 xenograft in nude mice; type: in vivo; details: for Average Body Weight: D11 (start of treatment, baseline weight)
Method: as §3

HCT-116 = test: SRB cytotoxicity assay, solid tumor cells HCT-116; type: cell-based; details: Homo sapiens, HCT-116, 72 h, read-out: IC50 HCT-116
Topo II = test: Topo II-mediated relaxation of pRYG-DNA; type: biochemical
DNA = DNA binding observed in the Topo II relaxation comparison; details: seen in Topo II relaxation comparison
[4] = number in bracket, ratio of IC50's
[5] = 3 mg/kg Q4Dx5 i.v., column D17, marked (D15)
[6] = 3 mg/kg Q4Dx5 i.v., column D20, marked (D19)

## OCc1cc(Nc2c3ccccc3nc3ccccc23)cc(OCCN(CCCl)CCCl)c1 [Compound 37, (3-(Acridin-9-ylamino)-5-{2-[bis(2-chloroethyl)amino]ethoxy}phenyl)methanol]
CCRF-CEM/Taxol; CCRF-CEM/taxol vs CCRF-CEM
  cross-resistance to taxol: does not develop cross-resistance
CCRF-CEM/Taxol; Homo sapiens, CCRF-CEM, 72 h, read-out: IC50 CCRF-CEM/Taxol
  IC50: 34 ± 13 nM
CCRF-CEM/Taxol; [4]
  folds of resistance CCRF-CEM/Taxol vs CCRF-CEM parent cells: 1.3 ×
[1]; 2 mg/kg (Q3D×5)
  average tumor size reduced: About 70%
[1]; 2 mg/kg Q3Dx5 i.v., D10 (start of treatment, baseline weight)
  Average Body Weight: 29.4 gm
[1]; 2 mg/kg Q3Dx5 i.v., D13
  Average Body Weight Change: −1.1 gm
[1]; 2 mg/kg Q3Dx5 i.v., D16
  Average Body Weight Change: −4.2 gm
  Average Tumor Size (T/C): 0.47
[1]; 2 mg/kg Q3Dx5 i.v., D19
  Average Body Weight Change: −3.3 gm
  Average Tumor Size (T/C): 0.34
[1]; 2 mg/kg Q3Dx5 i.v., D22
  Average Body Weight Change: −5.9 gm
  Average Tumor Size (T/C): 0.33
[1]; 2 mg/kg Q3Dx5 i.v., D25
  Average Body Weight Change: −6.8 gm
  Average Tumor Size (T/C): 0.34
[1]; 2 mg/kg Q3Dx5 i.v., animals tumor free/total
  Tumor free: 0/3
[1]; 2 mg/kg Q3Dx5 i.v., deaths/total
  Toxicity (death): 0/3
A549; 72 hours incubation, read-out: IC50 A549
  IC50: 5.6 ± 1.2 nM
A549; incubation for 3 hours, washed, then incubated for a total of 72 hours (footnote b), read-out: IC50 A549 after washing
  IC50: 5 nM
A549; washed away after incubation for 24 h
  alteration of potency when drug washed away: no alteration of the potency
CCRF-CEM/VBL; CCRF-CEM/VBL vs CCRF-CEM
  cross-resistance to vinblastine: does not develop cross-resistance
CCRF-CEM/VBL; Homo sapiens, CCRF-CEM, 72 h, read-out: IC50 CCRF-CEM/VBL
  IC50: 7.5 nM
CCRF-CEM/VBL; [4]
  folds of resistance CCRF-CEM/VBL vs CCRF-CEM parent cells: 0.53 ×
[2]
  cytotoxicity relative to AHMA: about 79 fold
  IC50: 7 nM
[2]; read-out: IC50 CCRF-CEM
  IC50: 9.5 ± 2.5 nM
[3]; 3 mg/kg Q4Dx5 i.v.
  Average Body Weight: 30.1 gm
[3]; 3 mg/kg Q4Dx5 i.v., D14
  Average Body Weight Change: −3.5 gm
[3]; 3 mg/kg Q4Dx5 i.v., D23
  Average Body Weight Change: −7.2 gm
  Average Tumor Size (T/C): 0.01
[3]; 3 mg/kg Q4Dx5 i.v., animals tumor free/total (D27, 28)
  Tumor free: 2/3
[3]; [5]
  Average Body Weight Change: −3.3 gm
  Average Tumor Size (T/C): 0.26
[3]; [6]
  Average Body Weight Change: −4.7 gm
  Average Tumor Size (T/C): 0.03
[3]; 3 mg/kg Q4Dx5 i.v., column D26, marked (D27)
  Average Body Weight Change: −8.8 gm
[3]; 3 mg/kg Q4Dx5 i.v., deaths/total (D27, 28, 29)
  Toxicity (death): 3/3
[3]; 1-2 mg/kg (Q3DX7) or 3 mg/kg (Q4D×5), intravenous injection, n=3
  mice becoming tumor-free: 66.7%
[3]; 1-2 mg/kg Q3Dx7 i.v.
  Average Body Weight: 28.3 gm
[3]; 1-2 mg/kg Q3Dx7 i.v., D14
  Average Body Weight Change: +1.2 gm
[3]; 1-2 mg/kg Q3Dx7 i.v., D17
  Average Body Weight Change: −1.4 gm
  Average Tumor Size (T/C): 0.37
[3]; 1-2 mg/kg Q3Dx7 i.v., D20
  Average Body Weight Change: −3.0 gm
  Average Tumor Size (T/C): 0.17
[3]; 1-2 mg/kg Q3Dx7 i.v., D23
  Average Body Weight Change: −3.0 gm
  Average Tumor Size (T/C): 0.14
[3]; 1-2 mg/kg Q3Dx7 i.v., D26
  Average Body Weight Change: −3.9 gm
[3]; 1-2 mg/kg Q3Dx7 i.v., animals tumor free/total (D32.32)
  Tumor free: 2/3
[3]; 1-2 mg/kg Q3Dx7 i.v., deaths/total
  Toxicity (death): 0/3
HCT-116
  IC50: 5.5 ± 1 nM
Topo II
  Topo II-mediated relaxation of pRYG-DNA: inhibited DNA relaxation
DNA
  binding to DNA: binds relatively tightly to DNA
